According to patent US20190328763A1, “A LIPID NANOPARTICLE FOR CARRYING ANTISENSE OLIGONUCLEOTIDES INHIBITING BCL-2 AND METHOD FOR PREPARING THE SAME” (NANJING LUYE PHARMACEUTICAL CO., LTD., priority 2016, published 2019):
Read-outs that look alike come from different tables or passages of the source. d = 2'-deoxy (DNA); m = 2'-O-methyl

What was measured:
Format in all cases: cell-based
bcl-2 messenger RNA [1] = assay: Gene level (Bcl-2) G3139 regulation experiment, Real-Time-PCR, KB cancer cells; conditions: for Ratio (bcl-2/β-actin): 1 μM G3139, 4 h incubation then 48 h culture, control group 100%
Experimental: (§1) (1) We will place cancer cells, such as A549 cells, KB cells, and LNCaP prostate cancer cells in 6-well plates and make the cells grow in an RPMI1640 culture solution containing 10% fetal calf serum to allow the cells to grow overnight to achieve a plating rate of 80%.
(§2) (3) After incubation in an environment of 37 degrees and 5% CO2 for 4 h, the cells will be transferred to a fresh culture solution and the culture will last for 48 h. Cells were collected, lysed, and extracted RNA according to standard methods.
(§3) (4) We will analyze the levels of bcl-2 messenger RNA in each group with the Real-Time-PCR technology, and we can finally quantify the expression of bcl-2 after treatment in each group according to the standard methods of reagent suppliers.
By designing different sample groups, we regulate the levels of bcl-2 in KB cells.

bcl-2 messenger RNA [2] = assay: Gene level (Bcl-2) G3139 regulation experiment, Real-Time-PCR, A549 lung cancer cells; conditions: for Ratio (bcl-2/β-actin): 1 μM G3139, 4 h incubation then 48 h culture, control group 100%
Experimental: as §1, §2, §3

bcl-2 messenger RNA [3] = assay: Gene level (Bcl-2) G3139 regulation experiment, Real-Time-PCR, LNCaP prostate cancer cells; conditions: for Ratio (bcl-2/β-actin): 1 μM G3139, 4 h incubation then 48 h culture, control group 100%
Experimental: as §1, §2, §3

A549 cells = assay: A549 lung cancer cytotoxicity test (MTS); conditions: Homo sapiens, paclitaxel 1 nmol/L-100 μmol/L, antisense oligonucleotide fixed 10 μmol/L
Experimental: (1) We placed A549 cells in 96-well plates, and made the cells grow in an RPMI1640 culture solution containing 10% fetal calf serum to allow the cells to grow overnight to achieve a plating rate of 60-70%.
(2) A toxicity test of multiple paclitaxel (PTX) concentration gradients (1 nmol/L-100 μmol/L) and antisense oligonucleotide concentrations (10 μmol/L) in each group was conducted with each concentration group on the second day, and each concentration group was incubated in a 37 degree and 5% CO2 environment.
(3) 20 ul of MTS reagent (a novel tetrazole compound) was added at different time points 24 h, 48 h, and 72 h, and the detection was performed at a wavelength of 490 nm and the results were as shown in the following table: […]

## 5′-TCT CCC AGC GTG CGC CAT-3′ (antisense TCTCCCAGCGTGCGCCAT; DNA, all phosphorothioate, methylation of C not given here) [free G3139]
bcl-2 messenger RNA [1]
  Ratio (bcl-2/β-actin): 95.31%
bcl-2 messenger RNA [2]
  Ratio (bcl-2/β-actin): 88.75%
bcl-2 messenger RNA [3]
  Ratio (bcl-2/β-actin): 93.15%

## 5′-UCU CCC AGC GTG CGC CAU-3′ (antisense UCUCCCAGCGTGCGCCAU; sugars from the 5' end m3 d12 m3, all phosphorothioate, methylation of C not given here) [free 2′-O-Me modified G3139]
bcl-2 messenger RNA [1]; 1 μM G3139
  gene-level down-regulation of bcl-2: 10.96%
bcl-2 messenger RNA [1]
  Ratio (bcl-2/β-actin): 89.04%
bcl-2 messenger RNA [2]; 1 μM G3139
  gene-level down-regulation of bcl-2: 6.71%
bcl-2 messenger RNA [2]
  Ratio (bcl-2/β-actin): 93.29%
bcl-2 messenger RNA [3]; 1 μM G3139
  gene-level down-regulation of bcl-2: 5.11%
bcl-2 messenger RNA [3]
  Ratio (bcl-2/β-actin): 94.89%

## CC(=O)O[C@H]1C(=O)[C@@]2(C)[C@H]([C@H](OC(=O)c3ccccc3)[C@]3(O)C[C@H](OC(=O)[C@H](O)[C@@H](NC(=O)c4ccccc4)c4ccccc4)C(C)=C1C3(C)C)[C@]1(OC(C)=O)CO[C@@H]1C[C@@H]2O [Paclitaxel (PTX) alone, Paclitaxel]
A549 cells; 24 h, read-out: IC50 after 24 h
  IC50: 75.6 nM
A549 cells; 48 h, read-out: IC50 after 48 h
  IC50: 28.5 nM
A549 cells; 72 h, read-out: IC50 after 72 h
  IC50: 17.9 nM
